According to ChEMBL document CHEMBL3045073, “Synthesis of -amino carbonyl derivatives of coumarin and benzofuran and evaluation of their biological activity” (Med Chem Res, 2013):
In brackets after ≈: the same amount, converted by molar mass.

Legend:
Candida albicans [1] = assay: Antifungal activity against Candida albicans NCPF 3179 assessed as growth inhibition at 0.5 to 1 mg/mL after 72 hr by agar well diffusion method; format: functional
[2] = system: Chrysosporium keratinophilum; assay: Antifungal activity against Chrysosporium keratinophilum assessed as growth inhibition at 0.5 to 1 mg/mL after 72 hr by agar well diffusion method; format: functional
Aspergillus flavus [3] = assay: Antifungal activity against Aspergillus flavus assessed as growth inhibition at 0.5 to 1 mg/mL after 72 hr by agar well diffusion method; format: functional
Pseudomonas aeruginosa [4] = assay: Antibacterial activity against Pseudomonas aeruginosa ATCC 27853 assessed as growth inhibition at 0.5 to 1 mg/mL after 24 hr by agar well diffusion method; format: functional
Escherichia coli [5] = assay: Antibacterial activity against Escherichia coli ATCC 25922 assessed as growth inhibition at 0.5 to 1 mg/mL after 24 hr by agar well diffusion method
Staphylococcus aureus [6] = assay: Antibacterial activity against Staphylococcus aureus ATCC 25923 assessed as growth inhibition at 0.5 to 1 mg/mL after 24 hr by agar well diffusion method
Pseudomonas aeruginosa [7] = assay: Antibacterial activity against Pseudomonas aeruginosa ATCC 27853 assessed as growth inhibition after 24 hr by serial broth dilution method; format: functional; conditions: ATCC 27853, 24 h
[8] = system: Radical scavenging activity; assay: Antioxidant activity assessed as DPPH free radical scavenging activity at 100 ug/mL after 10 min UV-Vis spectrophotometric analysis relative to control; format: functional
[9] = system: Chrysosporium keratinophilum; assay: Antifungal activity against Chrysosporium keratinophilum assessed as growth inhibition at 50 mg/mL after 72 hr by agar well diffusion method; format: functional; conditions: read-out: IZ
Aspergillus flavus [10] = assay: Antifungal activity against Aspergillus flavus assessed as growth inhibition at 50 mg/mL after 72 hr by agar well diffusion method; format: functional; conditions: read-out: IZ
Pseudomonas aeruginosa [11] = assay: Antibacterial activity against Pseudomonas aeruginosa ATCC 27853 assessed as growth inhibition at 50 mg/mL after 24 hr by agar well diffusion method; format: functional; conditions: ATCC 27853, 24 h, read-out: IZ
Aspergillus flavus [12] = assay: Antifungal activity against Aspergillus flavus assessed as growth inhibition after 72 hr by serial broth dilution method; format: functional
[13] = system: Chrysosporium keratinophilum; assay: Antifungal activity against Chrysosporium keratinophilum assessed as growth inhibition after 72 hr by serial broth dilution method; format: functional
Candida albicans [14] = assay: Antifungal activity against Candida albicans MTCC227 assessed as growth inhibition after 72 hr by serial broth dilution method; conditions: MTCC227, 72 h
Escherichia coli [15] = assay: Antibacterial activity against Escherichia coli ATCC 25922 assessed as growth inhibition after 24 hr by serial broth dilution method; conditions: ATCC 25922, 24 h
Candida albicans [16] = assay: Antifungal activity against Candida albicans MTCC227 assessed as growth inhibition at 50 mg/mL after 72 hr by agar well diffusion method; conditions: MTCC227, 72 h, read-out: IZ
Staphylococcus aureus [17] = assay: Antibacterial activity against Staphylococcus aureus ATCC 25923 assessed as growth inhibition after 24 hr by serial broth dilution method; conditions: ATCC 25923, 24 h
Escherichia coli [18] = assay: Antibacterial activity against Escherichia coli ATCC 25922 assessed as growth inhibition at 50 mg/mL after 24 hr by agar well diffusion method; conditions: ATCC 25922, 24 h, read-out: IZ
[19] = Metal chelating activity of the compound assessed as ferrous ion complex formation at 0.5 to 2 mg/mL after 10 min by spectrophotometric analysis
Staphylococcus aureus [20] = assay: Antibacterial activity against Staphylococcus aureus ATCC 25923 assessed as growth inhibition at 50 mg/mL after 24 hr by agar well diffusion method; conditions: ATCC 25923, 24 h, read-out: IZ

SMILES	MIC (Pseudomonas aeruginosa [7])	Activity [8]	zone of inhibition at 50000 µg/mL [9]	zone of inhibition at 50000 µg/mL (Aspergillus flavus [10])	zone of inhibition at 50000 µg/mL (Pseudomonas aeruginosa [11])	MIC (Aspergillus flavus [12])	MIC [13]	MIC (Candida albicans [14])	MIC (Escherichia coli [15])	zone of inhibition at 50000 µg/mL (Candida albicans [16])	MIC (Staphylococcus aureus [17])	zone of inhibition at 50000 µg/mL (Escherichia coli [18])	Activity [19]	zone of inhibition at 50000 µg/mL (Staphylococcus aureus [20])	further results
OC(Cn1cncn1)(Cn1cncn1)c1ccc(F)cc1F [FLUCONAZOLE]															inhibition zone (IZ) (Candida albicans [1]): 20 mm; MIC (Candida albicans [1]; Candida albicans, NCPF 3179, 72 h): 40 µg/mL (≈ 131 µM); inhibition zone (IZ) [2]: 14 mm; MIC ([2]; Chrysosporium keratinophilum, 72 h): 40 µg/mL (≈ 131 µM); inhibition zone (IZ) (Aspergillus flavus [3]): 10 mm; MIC (Aspergillus flavus [3]; Aspergillus flavus, 72 h): 40 µg/mL (≈ 131 µM)
CN[C@@H]1[C@H](O[C@H]2[C@H](O[C@H]3[C@H](O)[C@@H](O)[C@H](N=C(N)N)[C@@H](O)[C@@H]3N=C(N)N)O[C@@H](C)[C@]2(O)C=O)O[C@@H](CO)[C@H](O)[C@H]1O [STREPTOMYCIN]															inhibition zone (IZ) (Pseudomonas aeruginosa [4]): 13 mm; MIC (Pseudomonas aeruginosa [4]; Pseudomonas aeruginosa, ATCC 27853, 24 h): 30 µg/mL (≈ 51.6 µM); inhibition zone (IZ) (Escherichia coli [5]): 14 mm; MIC (Escherichia coli [5]; Escherichia coli, ATCC 25922, 24 h): 30 µg/mL (≈ 51.6 µM); inhibition zone (IZ) (Staphylococcus aureus [6]): 12 mm; MIC (Staphylococcus aureus [6]; Staphylococcus aureus, ATCC 25923, 24 h): 30 µg/mL (≈ 51.6 µM)
O=C(O)c1ccc(NC(CC(=O)c2cc3ccccc3oc2=O)c2ccccc2)cc1 (stereo not given)	150 µg/mL (≈ 363 µM)	64.6%	13 mm	11 mm	12 mm	250 µg/mL (≈ 605 µM)	200 µg/mL (≈ 484 µM)	150 µg/mL (≈ 363 µM)	50 µg/mL (≈ 121 µM)	17 mm	100 µg/mL (≈ 242 µM)	10 mm	64.3%	11 mm	
O=C(O)c1ccc(NC(CC(=O)c2cc3ccccc3o2)c2ccccc2)cc1 (stereo not given)	500 µg/mL (≈ 1300 µM)	52.2%	2 mm	3 mm	3 mm	500 µg/mL (≈ 1300 µM)	500 µg/mL (≈ 1300 µM)	400 µg/mL (≈ 1040 µM)	500 µg/mL (≈ 1300 µM)	2 mm	450 µg/mL (≈ 1170 µM)	3 mm	69.6%	3 mm	
